Usually stoichiometry N stands for a count of units in the complex or per binding partner.

Results on 2 molecules are retold here after PMC3213642 (The Biochemical journal, 2011).

The target in one data set is FlaI (Sulfolobus acidocaldarius, UniProt Q4J9L0, E336A). In words: size-exclusion chromatography and SAXS, hexamerization. The data set is classed as binding. The note with it: SAXS: pH 7.0, 200 mM NaCl, 1 mM ATP, 2.5 mM MgCl2, 20 °C.
The data set “SAXS” deals with the molecule itself. In words: SAXS.

`Nc1ncnc2c1ncn2[C@@H]1O[C@H](COP(=O)(O)OP(=O)(O)OP(=O)(O)O)[C@@H](O)[C@H]1O` [ATP]: the “size-exclusion chromatography and SAXS, hexamerization” value at FlaI is “FlaI^E336A with ATP clearly forms a hexameric ring similar to the one determined for GspE”.

B1: N-terminal His-tagged FlaI^E336A (Walker B mutant) (enzyme, S. acidocaldarius DSM639, UniProt Q4J9L0 1-513, looked up)
chain: MSFVEDYLTKLQERPTIIENPNILKGSKIFNAIYRVDDFVYIHIQSIKSEDGYNQYNVIEPPRPTHDEMEEIEEKFALSIGDKEPPEDTKEKEKLIRSILDKILLRMRLSVPKEYVIYHFIRDKLYTGSLEPLIRDPYIEDISIPGLGHVYIVHKVFGPMRTSIKFENYEELDNLIVSLSEKSYRPVSHNRPVVDASLPDGSRVNFVYGVDISRRGSNLTVRKFSRVPTSITQLIMFGTLSSMMAAYIWTMLDEGMNLFVCGETASGKTTTLNAITAFIPPNLKIVTIEDTPELTVPHSNWVAEVTRETGGEGTIKLFDLLKAALRQRPNYILVGAIRDKEGNVAFQAMQTGHSVMATFHAANITTLIQRLTGYPIEVPKSYINNLNIALFQTALYDKKGNLIRRVVEVDEIIDIDPVTNDVVYIPAFTYDSVQDKMLFAGKGSSYLIENKIAVKRGIDRRNIGLLYDELQMRSRFLNLLVEKKIFNYYDVWDYILRARQMGLEEAIKYVSNI
B1: the “stoichiometry N” value in the data set “SAXS” was 6.
